Measurements as given in publication PMC9656801, “Synthesis of Cyclotetrapeptides Analogues to Natural Products as Herbicides” (Molecules, 2022).
Read-outs that look alike come from different tables or passages of the source. Non-standard residues stand in square brackets, D forms with d. Residues, ends and D or L forms follow the SMILES beside them. NMeF = CN[C@@H](Cc1ccccc1)C(=O)O; dNMeF = CN[C@H](Cc1ccccc1)C(=O)O; NMeA = CN[C@@H](C)C(=O)O; Sar = CNCC(=O)O

Assays:
[1] = system: Lolium multiflorum (Ryegrass) seeds; experiment: whole plant or invertebrate; assay type: in vivo; details: agar germination; for Radicle growth inhibition (%): 67 µg/mL, 20 °C, evaluated after 12 days, three replicates of ten seeds, relative to DMSO negative control
Procedure: The herbicidal activity of cyclotetrapeptides 16–25, 27 and the linear precursors 4–8, 10, 12–15 were evaluated for their influence on germination, leaf development and radicle length growth of ryegrass seeds at 67 μg/mL using germination in agar methodology. DMSO was used as negative control and the herbicide S-metolachlor as positive control. […] The results were expressed as % of radicle growth inhibition, calculated as the percentage between the treatment with each compound and radicle length growth for the negative control (DMSO), as shown in Figure 3.
The experiments to determine the herbicidal activity of the cyclopeptide compounds were carried out on Lolium multiflorum (Raygrass) plants. Germination, root length and leaf development were evaluated, compared to a control without herbicide, a negative control (100 μL DMSO in 15 mL agar, used as solvent) and an herbicide control (1/8 of the commercial dose of the herbicide S-metolachlor).
Serial experiments were conducted using the Agar germination methodology, where the tested compounds and the respective controls were placed in glass Petri dishes (6 cm diameter) in three replicates per treatment. Ten ryegrass seeds were germinated in a growth chamber (20 °C, day/night temperature). The seeds were previously sterilized by immersing them in 70% alcohol for 10 s. When distributed in the Petri dish on the agar, the seeds were placed in such a way as to ensure that they remained submerged in the solution.
Agar–water solution was prepared at 0.3%, 3 g of agar was placed in 1 liter of deionized water, and the solution was autoclaved at 100 °C for 45 min. Once the agar medium had cooled to approximately 60 °C, the solutions were prepared.
The negative control–DMSO control was prepared by adding 100 μL of DMSO per plate in 15 mL of agar and then the seeds were distributed, as mentioned above. A control without DMSO was also carried out to check that the product was not altering the correct development of the ryegrass seeds. For this test, 15 ml of agar were placed in each Petri dish and, before it solidified, the seeds of the species evaluated were placed on top. The herbicide treatment, positive control–Control S-Metolachlor (960 g/L), was carried out for a conversion of 1/8 of the dose of 1 L/ha of commercial product. For this purpose, a stock solution of S-Metolachlor was prepared by placing 0.28 mL of the herbicide in a volumetric flask and topping up to 1000 mL. A total of 25 mL of this stock solution were taken, placed in a volumetric flask and brought to 200 mL, thus, generating the 1/8x solution of S-Metolachlor. A volume of 3 mL of 1/8x herbicide solution was mixed with 45 mL of the agar solution to bring 16 mL into each Petri dish. This ensured that there was 1 mL of 1/8x S-Metolachlor solution per plate: 0.28 μL of herbicide solution. Seeds were arranged in the same way. Using the same method, the agar media corresponding to each plate (15 mL) was mixed with the cyclopeptides dissolved in 100 μL of DMSO.
Germination, root length and leaf development were evaluated 12 days after preparation. The variables of germinated plants and plants with developed leaves of the total number of plants placed to germinate were analyzed by fitting a generalized linear model, since they presented a binomial distribution.
Glinmix procedure of the SAS statistical package. Based on the model and for the comparison of the treatments with the different controls, the contrasts of interest were carried out. The effect of the treatments on the root length variable was studied by comparing means using a Tukey test (p-value < 0.05) in INFOSTAT.
5. Procedure for evaluation of phytotoxic activity
Experiments for determining the herbicidal activity of cyclopeptide compounds were carried out on Lolium multiflorum (Ray grass) plants. Germination, root length, and leaf development were evaluated compared to a control without herbicide, a negative […]

[2] = system: Lolium multiflorum (Ryegrass) seeds; assay type: in vivo; details: agar germination
[3] = amide bond, 12-membered ring
[4] = system: Lolium multiflorum (Ryegrass) seeds; details: 67 μg/mL; cited from earlier work
[5] = system: cyanobacteria; details: cited from earlier work
[6] = system: HepG2 cells; details: cited from earlier work
[7] = 11 µM, 12 days, relative to DMSO control
[8] = 6 µM, 12 days, relative to DMSO control

CC(C)C[C@@H]1NC(=O)[C@H](C)N(C)C(=O)CN(C)C(=O)[C@H](Cc2ccccc2)NC1=O [Compound 23, Cyclo-[N-MeAla-Leu-Phe-N-MeGly]] (cyclo([NMeA]LF[Sar]))
Radicle growth inhibition (%) [1]: 16%

CN[C@@H](C)C(=O)N[C@@H](Cc1ccccc1)C(=O)N(C)[C@@H](Cc1ccccc1)C(=O)NCC(=O)O [Compound 13, N-MeAla-Phe-N-MePhe-Gly-OH] (H-[NMeA]F[NMeF]G-OH)
Radicle growth inhibition (%) [1]: greater than 85% | Radicle growth inhibition (%) ([2]; 5 µM, 12 days, relative to DMSO control): 38%

CC(C)C[C@H](NC(=O)[C@H](C)N)C(=O)N(C)[C@@H](Cc1ccccc1)C(=O)N(C)CC(=O)O [Compound 10, NH2-Ala-Leu-N-MePhe-N-MeGly-OH] (H-AL[NMeF][Sar]-OH)
Radicle growth inhibition (%) [1]: greater than 85% | Radicle growth inhibition (%) [2, 7]: 15%

C[C@H]1C(=O)N[C@@H](Cc2ccccc2)C(=O)N(C)[C@@H](Cc2ccccc2)C(=O)NCC(=O)N1C [Compound 25, Cyclo-[N-MeAla-Phe-N-MePhe-Gly]] (cyclo([NMeA]F[NMeF]G))
Radicle growth inhibition (%) [1]: 96% and greater than 85% | Radicle growth inhibition (%) ([2]; 4 µM, 12 days, relative to DMSO control): 41%

Cyclo-[Phe-N-MeGly-Cys(Bn)-N-MeGly]
ring closure, isolated yield [3]: 54%

CC(C)C[C@@H]1NC(=O)[C@H](C)N(C)C(=O)CNC(=O)[C@H](Cc2ccccc2)N(C)C1=O [Compound 24, Cyclo-[N-MeAla-Leu-N-MePhe-Gly]] (cyclo([NMeA]L[NMeF]G))
Radicle growth inhibition (%) [1]: 81% | Radicle growth inhibition (%) ([2]; 10 µM, 12 days, relative to DMSO control): 62%

Cyclo-[N-MeAla-Leu-D-Phe-Gly] (head to tail) [Compound 20]
Radicle growth inhibition (%) [1]: 74% | Radicle growth inhibition (%) [2, 8]: 32%

C[C@@H]1NC(=O)[C@@H](Cc2ccccc2)N(C)C(=O)CN(C)C(=O)[C@H](Cc2ccccc2)NC1=O [Compound 26, Cyclo-[N-Me-D-Phe-Ala-Phe-N-MeGly]] (cyclo([dNMeF]AF[Sar]))
Radicle growth inhibition (%) ([2]; 7 µM, 12 days, relative to DMSO control): 45% | Radicle growth inhibition (%) ([2]; 45 µg/mL, 12 days, relative to DMSO control): 67%

versicotide D
radicle growth inhibition [4]: 74% | inhibition of cyanobacteria population [5]: ability to inhibit cyanobacteria population | cytotoxicity on HepG2 cells [6]: low cytotoxicity

Cyclo-[N-Me-D-Phe-Ala-Phe-N-MeGly]
ring closure, isolated yield [3]: 17%

CC(C)C[C@@H]1NC(=O)[C@H](C)NC(=O)CNC(=O)[C@@H](Cc2ccccc2)N(C)C1=O [Cyclo-[Ala-Leu-N-Me-D-Phe-Gly]]
ring closure, isolated yield ([3]; from H-Ala-Leu-dMePhe-Gly-OH): 66%

CC(C)C[C@@H]1NC(=O)[C@H](C)NC(=O)CN(C)C(=O)[C@H](Cc2ccccc2)N(C)C1=O [Compound 22, Cyclo-[Ala-Leu-N-MePhe-N-MeGly]] (cyclo(AL[NMeF][Sar]))
Radicle growth inhibition (%) [1]: 66%

CC(C)C[C@@H]1NC(=O)[C@H](C)NC(=O)CN(C)C(=O)[C@@H](Cc2ccccc2)NC1=O [Cyclo [Ala-Leu-D-Phe-N-MeGly]]
ring closure, isolated yield ([3]; from H-Ala-Leu-dPhe-MeGly-OH): 76%

Cyclo-[N-MeAla-Leu-D-Phe-Gly]
ring closure, isolated yield [3]: 67%

CC(C)C[C@@H]1NC(=O)[C@H](C)NC(=O)CNC(=O)[C@@H](Cc2ccccc2)NC1=O [Cyclo-[Ala-Leu-D-Phe-Gly]]
ring closure, isolated yield ([3]; from H-Ala-Leu-dPhe-Gly-OH): 5%

Cyclo-[N-MeAla-Phe-N-MePhe-Gly]
ring closure, isolated yield [3]: 86%

CC(C)C[C@H](NC(=O)[C@H](C)N)C(=O)N(C)[C@H](Cc1ccccc1)C(=O)NCC(=O)O [Compound 7, NH2-Ala-Leu-N-Me-D-Phe-Gly-OH] (H-AL[dNMeF]G-OH)
Radicle growth inhibition (%) [1]: 94% and greater than 85% | Radicle growth inhibition (%) [2, 7]: 48%

Cyclo-[N-MeAla-Leu-Phe-Gly]
ring closure, isolated yield [3]: 48%

CC(C)C[C@@H]1NC(=O)[C@H](C)NC(=O)CN(C)C(=O)[C@H](Cc2ccccc2)NC1=O [Cyclo-[Ala-Leu-Phe-N-MeGly]]
ring closure, isolated yield ([3]; from H-Ala-Leu-Phe-MeGly-OH): 40%

Cyclo-[N-MeAla-Leu-Phe-Gly] (head to tail) [Compound 17]
Radicle growth inhibition (%) [2, 8]: 10%

Cyclo-[N-MeAla-Leu-N-MePhe-Gly]
ring closure, isolated yield [3]: 47%

CC(C)C[C@@H]1NC(=O)[C@H](C)NC(=O)CN(C)C(=O)[C@H](Cc2ccccc2)N(C)C1=O [Cyclo-[Ala-Leu-N-MePhe-N-MeGly]]
ring closure, isolated yield ([3]; from H-Ala-Leu-MePhe-MeGly-OH): 33%

CC(C)C[C@@H]1NC(=O)[C@H](C)N(C)C(=O)CN(C)C(=O)[C@H](Cc2ccccc2)NC1=O [Cyclo-[N-MeAla-Leu-Phe-N-MeGly]]
ring closure, isolated yield ([3]; from H-MeAla-Leu-Phe-MeGly-OH): 38%

Cyclo-[Ala-Leu-D-Phe-Gly] (head to tail) [Compound 16]
Radicle growth inhibition (%) [1]: inactive

Cyclo-[Ala-Leu-N-Me-D-Phe-Gly] (head to tail) [Compound 19]
Radicle growth inhibition (%) [1]: 87% and greater than 85% | Radicle growth inhibition (%) ([2]; 9 µM, 12 days, relative to DMSO control): 53%

CCc1cccc(C)c1N(C(=O)CCl)[C@@H](C)COC [S-metolachlor, reference compound]
inhibition at 2.1 µg/mL ([1]; Lolium multiflorum, 288 h, positive control at 2.1 µg/mL (1/8 of the commercial dose), 12 days, read-out: Radicle growth inhibition (%)): 100%

CN[C@H](Cc1ccccc1)C(=O)N[C@@H](C)C(=O)N[C@@H](Cc1ccccc1)C(=O)N(C)CC(=O)O [Compound 14, N-Me-D-Phe-Ala-Phe-N-MeGly-OH] (H-[dNMeF]AF[Sar]-OH)
Radicle growth inhibition (%) ([2]; 67 µM as printed): 53%

CC(C)C[C@H](NC(=O)[C@H](C)N)C(=O)N[C@@H](Cc1ccccc1)C(=O)N(C)CC(=O)O [Compound 6, NH2-Ala-Leu-Phe-NMeGly-OH] (H-ALF[Sar]-OH)
Radicle growth inhibition (%) [1]: 92% and greater than 85%
